For seven compounds, GI50 and TGI results are on record in PubChem BioAssay (NCI).

Test systems include SF-268 CNS; SN12C renal; SK-OV-3 ovarian; EKVX NSCLC; OVCAR-4 ovarian; UO-31 renal; HOP-62 NSCLC; HS 578T breast; OVCAR-8 ovarian; KM12 colon.
Common to all, as to assay: growth of human tumour cells (NCI), 48 h

The structures appear in SMILES notation.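 96-well plates; 48 h exposure; 5 concentrations. Endpoints by linear interpolation between flanking doses. Not reached: highest tested concentration assigned. GI50 = concentration required for 50% inhibition of growth. TGI: concentration producing complete growth inhibition.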

Turning to `CO[C@H]1CC(O[C@@H]2/C(C)=C/C[C@@H]3C[C@@H](C[C@]4(CC[C@H](C)[C@@H](C5CCCCC5)O4)O3)OC(=O)[C@@H]3C=C(C)/C(=N/O)[C@H]4OC/C(=C\C=C\[C@@H]2C)[C@]43O)O[C@@H](C)C1O` (stereo not given in full), the GI50 with SF-268 CNS was 0.982 µM; in the experiment on SN12C renal, 0.889 µM; in the experiment on SK-OV-3 ovarian it was 1.17 µM; with EKVX NSCLC, 0.951 µM; in the experiment with OVCAR-4 ovarian, 1.02 µM; with UO-31 renal, 0.769 µM. The GI50 is 0.887 µM in the experiment on HOP-62 NSCLC, 1.22 µM with HS 578T breast, 0.962 µM in the experiment with OVCAR-8 ovarian and 0.826 µM in the experiment on KM12 colon. The TGI was 2.45 µM in the experiment with SF-268 CNS; 1.85 µM in the experiment on SN12C renal; 2.86 µM in the experiment with SK-OV-3 ovarian; 2.64 µM in the experiment on EKVX NSCLC; 2.65 µM in the experiment on OVCAR-4 ovarian; 1.98 µM with UO-31 renal. Also, the TGI was 1.73 µM in the experiment on HOP-62 NSCLC, 5.52 µM with HS 578T breast, 2.41 µM with OVCAR-8 ovarian and 1.52 µM with KM12 colon.
Take `Cc1cc2c(-c3nc4ccccn4c3N)c(O)c(O)cc2c(O)c1-c1c(C)cc2c(-c3nc4ccccn4c3N)c(O)c(O)cc2c1O`: the GI50 in the experiment on SF-268 CNS was 0.653 µM; with SN12C renal it was 0.82 µM; with SK-OV-3 ovarian, 0.805 µM; in the experiment on EKVX NSCLC, 0.965 µM; in the experiment with OVCAR-4 ovarian, 4.85 µM; in the experiment with UO-31 renal, 1.12 µM. In addition, the GI50 in the experiment with HOP-62 NSCLC is 1.15 µM; in the experiment with HS 578T breast it was 0.797 µM; in the experiment with OVCAR-8 ovarian, 0.975 µM; in the experiment with KM12 colon it was 0.227 µM. In addition, the TGI in the experiment with SF-268 CNS is above 25 µM; in the experiment with SN12C renal, above 25 µM; in the experiment with SK-OV-3 ovarian it was 6.03 µM; with EKVX NSCLC, above 25 µM; in the experiment on OVCAR-4 ovarian, above 25 µM; in the experiment with UO-31 renal it was above 25 µM. In addition, the TGI with HOP-62 NSCLC, with HS 578T breast, in the experiment with OVCAR-8 ovarian and in the experiment with KM12 colon was above 25 µM in each case.
Take `CC(=O)N1N=C(c2ccc(Nc3nc(Nc4ccc(F)cc4)nc(Nc4ccc(F)cc4)n3)cc2)CC1c1ccc(N(C)C)cc1` (stereo not given): the GI50 in the experiment with SF-268 CNS was 12.8 µM; in the experiment on SN12C renal, 6.3 µM; with SK-OV-3 ovarian, 15.5 µM; in the experiment with EKVX NSCLC, 15.7 µM; in the experiment with OVCAR-4 ovarian, 3.77 µM; in the experiment on UO-31 renal, 5.94 µM. The GI50 with HOP-62 NSCLC is 5.98 µM; in the experiment with HS 578T breast, 1.6 µM; with OVCAR-8 ovarian, 2.72 µM; with KM12 colon, 3.34 µM. Moreover, the TGI is 43.3 µM in the experiment with SF-268 CNS; above 100 µM in the experiment with SN12C renal; 53.7 µM in the experiment on SK-OV-3 ovarian; above 100 µM in the experiment with EKVX NSCLC; above 100 µM in the experiment on OVCAR-4 ovarian; 35.8 µM in the experiment on UO-31 renal. Further, the TGI is 26 µM in the experiment with HOP-62 NSCLC, 9.02 µM with HS 578T breast, 10.1 µM in the experiment with OVCAR-8 ovarian and 12.4 µM in the experiment on KM12 colon.
On to `Cn1c2c(c3ccccc31)CCN1C(=O)CCC21` (stereo not given), for which the TGI with SF-268 CNS, in the experiment with SN12C renal, with SK-OV-3 ovarian, in the experiment with EKVX NSCLC, with OVCAR-4 ovarian and with UO-31 renal was above 10 µM in each case. The TGI in the experiment with HOP-62 NSCLC, in the experiment on HS 578T breast, in the experiment with OVCAR-8 ovarian and with KM12 colon was above 10 µM each time.
On to `C#CCN(c1ccc(C(=O)N[C@@H](CCC(=O)N[C@H](CCC(=O)O)C(=O)O)C(=O)O)cc1)C1CCc2cc3nc(CO)[nH]c(=O)c3cc21` (stereo not given in full), for which the GI50 with SF-268 CNS is 5.94 µM; in the experiment on SN12C renal it was 6.78 µM; in the experiment with SK-OV-3 ovarian, above 53.4 µM; in the experiment on EKVX NSCLC it was above 100 µM; in the experiment with OVCAR-4 ovarian, above 100 µM; with UO-31 renal, 3.74 µM. In addition, the GI50 is above 31.8 µM in the experiment with HOP-62 NSCLC, above 100 µM in the experiment with HS 578T breast, 5.81 µM in the experiment with OVCAR-8 ovarian and above 100 µM with KM12 colon. The TGI in the experiment with SF-268 CNS, in the experiment with SN12C renal, in the experiment on SK-OV-3 ovarian, with EKVX NSCLC, in the experiment with OVCAR-4 ovarian and in the experiment on UO-31 renal was above 100 µM in each case. For the same compound, the TGI in the experiment with HOP-62 NSCLC, with HS 578T breast, in the experiment with OVCAR-8 ovarian and in the experiment with KM12 colon was above 100 µM in each case.
In the case of `N#Cc1cnc(Nc2cc(NC[C@H]3CNCCO3)c(C(F)(F)F)cn2)cn1`, the GI50 is 16.2 µM with SF-268 CNS; 17.7 µM in the experiment on SN12C renal; 3.62 µM in the experiment on SK-OV-3 ovarian; 17.5 µM in the experiment with EKVX NSCLC; 10.5 µM with OVCAR-4 ovarian; 5.49 µM with UO-31 renal. Further, the GI50 in the experiment with HOP-62 NSCLC is 6.54 µM; in the experiment with HS 578T breast it was 0.882 µM; in the experiment with OVCAR-8 ovarian it was 3.69 µM; in the experiment with KM12 colon, 11.4 µM. Moreover, the TGI in the experiment with SF-268 CNS stood at 47.5 µM; in the experiment on SN12C renal it was 83 µM; with SK-OV-3 ovarian it was 38.9 µM; with EKVX NSCLC, 59.4 µM; in the experiment on OVCAR-4 ovarian, 82.7 µM; in the experiment on UO-31 renal, 69.2 µM. The TGI was found to be 36.8 µM in the experiment on HOP-62 NSCLC, 60.3 µM with HS 578T breast, 93 µM with OVCAR-8 ovarian and 88.4 µM in the experiment with KM12 colon.
Take `COc1cccc(Nc2nc3ccccc3c3occc23)c1`: the GI50 in the experiment with SF-268 CNS was 13.9 µM; in the experiment on SN12C renal it was 12.1 µM; in the experiment with SK-OV-3 ovarian it was 8.48 µM; in the experiment with EKVX NSCLC it was 14.3 µM; with OVCAR-4 ovarian, 11.2 µM; in the experiment on UO-31 renal, 6.98 µM. Further, the GI50 with HOP-62 NSCLC is 15 µM; in the experiment on HS 578T breast, 9.07 µM; in the experiment with OVCAR-8 ovarian, 15.8 µM; in the experiment with KM12 colon it was 3.13 µM. In addition, the TGI in the experiment with SF-268 CNS came out at 34.1 µM; with SN12C renal, 35.1 µM; in the experiment with SK-OV-3 ovarian it was 22.7 µM; in the experiment with EKVX NSCLC, 36.9 µM; in the experiment on OVCAR-4 ovarian, 29.8 µM; with UO-31 renal, 27.6 µM. Moreover, the TGI in the experiment on HOP-62 NSCLC amounted to 39 µM; in the experiment on HS 578T breast, 29.7 µM; with OVCAR-8 ovarian, 42.7 µM; in the experiment with KM12 colon, 10.7 µM.
